Common to all, as to set-up: dose 20 mg/kg, route intravenous
Conditions in all cases: in vivo

Data set [1] in a line: Drug level in New Zealand white rabbit bone marrow assessed as [14C]dalbavancin level per gram of tissue at 20 mg/kg, iv after 12 hrs by autoradioluminography. In kind it is ADME, organism-based, Oryctolagus cuniculus.
Data set [2] concerns Blood. As to the kind of experiment: Drug level in New Zealand white rabbit blood assessed as [14C]dalbavancin level per gram of tissue at 20 mg/kg, iv after 120 hrs by autoradioluminography. In kind it is ADME, organism-based, Oryctolagus cuniculus.
A short description of data set [3]: Drug level in New Zealand white rabbit epiphyseal plate assessed as [14C]dalbavancin level per gram of tissue at 20 mg/kg, iv after 72 hrs by autoradioluminography. In kind it is ADME, organism-based, Oryctolagus cuniculus.
Data set [4] can be described thus: Drug level in New Zealand white rabbit ligament assessed as [14C]dalbavancin level per gram of tissue at 20 mg/kg, iv after 24 hrs by autoradioluminography. In kind it is ADME, organism-based, Oryctolagus cuniculus.
The subject of data set [5] is Oryctolagus cuniculus. Nature of the data set: Plasma concentration in New Zealand white rabbit assessed as [14C]dalbavancin level per gram of tissue at 20 mg/kg, iv after 120 hrs by liquid scintillation counting method. In kind it is ADME, organism-based.
In data set [6] the test system is Oryctolagus cuniculus. Nature of the data set: Plasma concentration in New Zealand white rabbit assessed as [14C]dalbavancin level per gram of tissue at 20 mg/kg, iv after 168 hrs by liquid scintillation counting method. In kind it is ADME, organism-based.
Data set [7] in a line: Drug level in New Zealand white rabbit bone marrow assessed as [14C]dalbavancin level per gram of tissue at 20 mg/kg, iv after 72 hrs by liquid scintillation counting method. In kind it is ADME, organism-based, Oryctolagus cuniculus.
Data set [8] is described as follows: Drug level in New Zealand white rabbit bone marrow assessed as [14C]dalbavancin level per gram of tissue at 20 mg/kg, iv after 336 hrs by liquid scintillation counting method. The data set is classed as ADME, organism-based, Oryctolagus cuniculus.
The nature of data set [9]: Drug level in New Zealand white rabbit nucleus pulposus assessed as [14C]dalbavancin level per gram of tissue at 20 mg/kg, iv after 24 hrs by liquid scintillation counting method. The data set is classed as ADME, organism-based, Oryctolagus cuniculus.
The test system of data set [10] is Blood. Nature of the data set: Drug level in New Zealand white rabbit blood assessed as [14C]dalbavancin level per gram of tissue at 20 mg/kg, iv after 24 hrs by autoradioluminography. The data set is classed as ADME, organism-based, Oryctolagus cuniculus.

For the compound `CN[C@H]1C(=O)N[C@@H]2Cc3ccc(cc3)Oc3cc4cc(c3O[C@@H]3O[C@H](C(=O)O)[C@@H](O)[C@H](O)[C@H]3NC(=O)CCCCCCCCC(C)C)Oc3ccc(cc3Cl)[C@@H](O)[C@@H]3NC(=O)[C@H](NC(=O)[C@@H]4NC(=O)[C@@H](NC2=O)c2cc(cc(O)c2Cl)Oc2cc1ccc2O)c1ccc(O)c(c1)-c1c(O[C@H]2O[C@H](CO)[C@@H](O)[C@H](O)[C@@H]2O)cc(O)cc1[C@@H](C(=O)NCCCN(C)C)NC3=O` [DALBAVANCIN], the Drug uptake was determined as 40.2 µg/g in data set [1]; 1.5 µg/g with Blood [2]; 11.7 µg/g in [3]; 8.64 µg/g in data set [4]; 12.7 µg/g in data set [7]; 12 µg/g in [8]. Also, the Drug uptake in data set [9] came out at 0.76 µg/g; with Blood [10], 14.49 µg. Also, the Cp stood at 2.78 µg in the data set with Oryctolagus cuniculus [5] and 2.01 µg in the data set on Oryctolagus cuniculus [6].

Source of the values: ChEMBL document CHEMBL1155172, “Distribution of radioactivity in bone and related structures following administration of [14C]dalbavancin to New Zealand white rabbits” (Antimicrob Agents Chemother, 2007).
